Reference: Sander's compilation of Henry's law constants

How the values were obtained:
[1] = Henry solubility constant Hcp at 310 K (mol/(m3 Pa))
[2] = Henry solubility constant Hcp at 296 K (mol/(m3 Pa))
[3] = Henry solubility constant Hcp at 298.15 K (mol/(m3 Pa))
[4] = Henry solubility constant Hcp at 293 K (mol/(m3 Pa))
[5] = Henry solubility constant Hcp at 295 K (mol/(m3 Pa))
[6] = Henry solubility constant Hcp at 303 K (mol/(m3 Pa))
[7] = reference: McIntosh and Heffron (2000)
[8] = reference: Bissonette et al. (1990)
[9] = reference: Robbins et al. (1993)
[10] = reference: Turner et al. (1996)
[11] = reference: Wasik and Tsang (1970)
[12] = reference: Yurteri et al. (1987)
[13] = reference: Warner et al. (1980)
[14] = reference: de Wolf and Lieder (1998)
[15] = reference: Meynier et al. (2003)
[16] = reference: Hartkopf and Karger (1973)
[17] = reference: Mackay et al. (1979)
[18] = reference: Ramachandran et al. (1996)
[19] = reference: Richon et al. (1985)
[20] = reference: Kieckbusch and King (1979b)
[21] = reference: Fendinger et al. (1989)

SMILES: Cc1ccccc1C [1,2-dimethylbenzene]
- Henry solubility constant Hcp at 310 K [1, 7]: 0.00096
- Henry solubility constant Hcp at 296 K ([2]; reference: Anderson (1992)): 0.0017
- Henry solubility constant Hcp [3, 8]: 0.0021
- Henry solubility constant Hcp ([3]; reference: Li et al. (2008)): 0.0023
- Henry solubility constant Hcp [3, 9]: 0.002
- Henry solubility constant Hcp ([3]; reference: Sieg et al. (2009)): 0.002
- Henry solubility constant Hcp [3, 10]: 0.0014
- Henry solubility constant Hcp [3, 11]: 0.0029
- Henry solubility constant Hcp at 293 K [4, 12]: 0.0023

SMILES: Clc1cccc(Cl)c1 [1,3-dichlorobenzene]
- Henry solubility constant Hcp ([3]; reference: Li et al. (2008)): 0.0029
- Henry solubility constant Hcp [3, 13]: 0.0038
- Henry solubility constant Hcp at 295 K [5, 14]: 0.0037

SMILES: C=CC(C)(C)O [2-methyl-3-buten-2-ol]
- Henry solubility constant Hcp at 303 K ([6]; reference: Iraci et al. (1999)): 0.64

SMILES: CC(=O)OCCC(C)C [3-methylbutyl ethanoate]
- Henry solubility constant Hcp at 303 K [6, 15]: 0.088
- Henry solubility constant Hcp ([3]; reference: Ammari and Schroen (2019)): 0.022

SMILES: CCC(=O)CC [3-pentanone]
- Henry solubility constant Hcp at 303 K ([6]; reference: Saylor et al. (1938)): 9.7e-05
- Henry solubility constant Hcp ([3]; reference: Hovorka et al. (2019)): 0.11
- Henry solubility constant Hcp ([3]; reference: Ji and Evans (2007)): 0.16

SMILES: CCC/C=C/C=O [(E)-2-hexenal]
- Henry solubility constant Hcp at 303 K [6, 15]: 0.9
- Henry solubility constant Hcp ([3]; reference: Buttery et al. (1971)): 0.2

SMILES: Brc1ccccc1 [bromobenzene]
- Henry solubility constant Hcp ([3]; reference: Lau et al. (2010)): 0.0039
- Henry solubility constant Hcp at 295 K [5, 14]: 0.005

SMILES: Clc1ccccc1 [chlorobenzene]
- Henry solubility constant Hcp [3, 8]: 0.0024
- Henry solubility constant Hcp ([3]; reference: Cooling et al. (1992)): 0.003
- Henry solubility constant Hcp ([3]; reference: Ervin et al. (1980)): 0.0029
- Henry solubility constant Hcp ([3]; reference: Ettre et al. (1993)): 0.0031
- Henry solubility constant Hcp [3, 16]: 0.0028
- Henry solubility constant Hcp ([3]; reference: Khalfaoui and Newsham (1994b)): 0.003
- Henry solubility constant Hcp ([3]; reference: Lau et al. (2010)): 0.0017
- Henry solubility constant Hcp ([3]; reference: Lei et al. (2004)): 0.0015
- Henry solubility constant Hcp ([3]; reference: Li et al. (2008)): 0.0024
- Henry solubility constant Hcp [3, 17]: 0.0026
- Henry solubility constant Hcp ([3]; reference: Park et al. (1997)): 0.0019
- Henry solubility constant Hcp [3, 18]: 0.0029
- Henry solubility constant Hcp [3, 13]: 0.0025
- Henry solubility constant Hcp at 295 K [5, 14]: 0.0034
- Henry solubility constant Hcp at 293 K [4, 12]: 0.0031

SMILES: [CH3][Hg][Cl] [chloromethylmercury]
- Henry solubility constant Hcp ([3]; reference: Iverfeldt and Lindqvist (1982)): 22
- Henry solubility constant Hcp at 295 K ([5]; reference: Talmi and Mesmer (1975)): 15

SMILES: CCCCC(CC)COC(=O)CCCCC(=O)OCC(CC)CCCC (centres undefined) [di-(2-ethylhexyl)-adipate]
- Henry solubility constant Hcp at 295 K ([5]; reference: Felder et al. (1986)): 23

SMILES: ClCCl [dichloromethane]
- Henry solubility constant Hcp at 310 K [1, 7]: 0.0034
- Henry solubility constant Hcp at 296 K ([2]; reference: David et al. (2000)): 0.0039
- Henry solubility constant Hcp ([3]; reference: Chen et al. (2012)): 0.0035
- Henry solubility constant Hcp ([3]; reference: Gossett (1987)): 0.0046
- Henry solubility constant Hcp ([3]; reference: Gossett et al. (1985)): 0.0038
- Henry solubility constant Hcp [3, 16]: 0.0042
- Henry solubility constant Hcp ([3]; reference: Lincoff and Gossett (1984)): 0.0034
- Henry solubility constant Hcp ([3]; reference: Lutsyk et al. (2005)): 0.0043
- Henry solubility constant Hcp ([3]; reference: Park et al. (1997)): 0.0043
- Henry solubility constant Hcp [3, 13]: 0.0031
- Henry solubility constant Hcp at 293 K ([4]; reference: Chiang et al. (1998)): 0.0034
- Henry solubility constant Hcp at 293 K ([4]; reference: Pearson and McConnell (1975)): 0.0033
- Henry solubility constant Hcp at 293 K ([4]; reference: Yu (1992)): 0.0044
- Henry solubility constant Hcp at 293 K [4, 12]: 0.0052

SMILES: [N-]=[N+]=O [dinitrogen monoxide]
- Henry solubility constant Hcp at 310 K ([1]; reference: Bachofen and Farhi (1971)): 0.00019
- Henry solubility constant Hcp at 310 K ([1]; reference: Sy and Hasbrouck (1964)): 0.00014
- Henry solubility constant Hcp at 296 K ([2]; reference: Nunn (1958)): 0.00022
- Henry solubility constant Hcp ([3]; reference: Carius (1855)): 0.00025
- Henry solubility constant Hcp ([3]; reference: Gabel and Schultz (1973)): 0.00025
- Henry solubility constant Hcp ([3]; reference: Geffcken (1904)): 0.00024
- Henry solubility constant Hcp ([3]; reference: Joosten and Danckwerts (1972)): 0.00024
- Henry solubility constant Hcp ([3]; reference: Kunerth (1922)): 0.00024
- Henry solubility constant Hcp ([3]; reference: Orcutt and Seevers (1937a)): 0.00024
- Henry solubility constant Hcp ([3]; reference: Roth (1897)): 0.00023
- Henry solubility constant Hcp ([3]; reference: Saidman et al. (1966)): 0.00024
- Henry solubility constant Hcp ([3]; reference: Siebeck (1909)): 0.00024
- Henry solubility constant Hcp ([3]; reference: Weiss and Price (1980)): 0.00024

SMILES: CCOC=O [ethyl methanoate]
- Henry solubility constant Hcp at 303 K [6, 19]: 0.023
- Henry solubility constant Hcp [3, 16]: 0.0019
- Henry solubility constant Hcp ([3]; reference: Kutsuna et al. (2005)): 0.034
- Henry solubility constant Hcp ([3]; reference: Wittig et al. (2001)): 0.04

SMILES: CCCCC(=O)OCC [ethyl pentanoate]
- Henry solubility constant Hcp at 303 K [6, 15]: 0.14

SMILES: [HH] [hydrogen]
- Henry solubility constant Hcp at 310 K ([1]; reference: Longo et al. (1970)): 7.2e-06
- Henry solubility constant Hcp at 310 K ([1]; reference: Power and Stegall (1970)): 7.2e-06
- Henry solubility constant Hcp at 303 K ([6]; reference: Ruetschi and Amlie (1966)): 7.5e-06
- Henry solubility constant Hcp ([3]; reference: Bohr and Bock (1891)): 7.5e-06
- Henry solubility constant Hcp ([3]; reference: Braun (1900)): 7.7e-06
- Henry solubility constant Hcp ([3]; reference: Bunsen (1855a)): 8.5e-06
- Henry solubility constant Hcp ([3]; reference: Crozier and Yamamoto (1974)): 7.7e-06
- Henry solubility constant Hcp ([3]; reference: Geffcken (1904)): 7.8e-06
- Henry solubility constant Hcp ([3]; reference: Gordon et al. (1977)): 7.7e-06
- Henry solubility constant Hcp ([3]; reference: Morrison and Billett (1952)): 7.8e-06
- Henry solubility constant Hcp ([3]; reference: Schmidt (1979)): 7.8e-06
- Henry solubility constant Hcp ([3]; reference: Timofejew (1890)): 7.8e-06
- Henry solubility constant Hcp ([3]; reference: Winkler (1891a)): 7.7e-06

SMILES: Cc1ccccc1 [methylbenzene]
- Henry solubility constant Hcp at 310 K [1, 7]: 0.00085
- Henry solubility constant Hcp at 296 K ([2]; reference: Anderson (1992)): 0.0015
- Henry solubility constant Hcp at 296 K ([2]; reference: David et al. (2000)): 0.0015
- Henry solubility constant Hcp at 296 K ([2]; reference: Miller and Stuart (2000)): 0.0016
- Henry solubility constant Hcp ([3]; reference: Allen et al. (1998)): 0.0015
- Henry solubility constant Hcp ([3]; reference: Bakierowska and Trzeszczyński (2003)): 0.0017
- Henry solubility constant Hcp ([3]; reference: Bierwagen and Keller (2001)): 0.0017
- Henry solubility constant Hcp [3, 8]: 0.0014
- Henry solubility constant Hcp ([3]; reference: Bobadilla et al. (2003)): 0.0021
- Henry solubility constant Hcp ([3]; reference: Brown and Wasik (1974)): 0.0016
- Henry solubility constant Hcp ([3]; reference: Ervin et al. (1980)): 0.0015
- Henry solubility constant Hcp ([3]; reference: Ettre et al. (1993)): 0.0015
- Henry solubility constant Hcp ([3]; reference: Garbarini and Lion (1985)): 0.0015
- Henry solubility constant Hcp ([3]; reference: Görgényi et al. (2002)): 0.0015
- Henry solubility constant Hcp [3, 16]: 0.002
- Henry solubility constant Hcp ([3]; reference: Keeley et al. (1988)): 0.0016
- Henry solubility constant Hcp ([3]; reference: Kish et al. (2013)): 0.0015
- Henry solubility constant Hcp ([3]; reference: Kutsuna and Kaneyasu (2021)): 0.0015
- Henry solubility constant Hcp ([3]; reference: Lau et al. (2010)): 0.0013
- Henry solubility constant Hcp ([3]; reference: Lee et al. (2013)): 0.0017
- Henry solubility constant Hcp ([3]; reference: Lei et al. (2004)): 0.0014
- Henry solubility constant Hcp ([3]; reference: Li et al. (2008)): 0.0015
- Henry solubility constant Hcp ([3]; reference: Lin and Chou (2006)): 0.0015
- Henry solubility constant Hcp ([3]; reference: Lodge and Danso (2007)): 0.0014
- Henry solubility constant Hcp [3, 17]: 0.0015
- Henry solubility constant Hcp ([3]; reference: Nielsen et al. (1994)): 0.0016
- Henry solubility constant Hcp ([3]; reference: Park et al. (1997)): 0.0013
- Henry solubility constant Hcp ([3]; reference: Peng and Wan (1997)): 0.0017
- Henry solubility constant Hcp ([3]; reference: Peng and Wan (1998)): 0.0021
- Henry solubility constant Hcp ([3]; reference: Perlinger et al. (1993)): 0.0015
- Henry solubility constant Hcp [3, 18]: 0.0015
- Henry solubility constant Hcp [3, 9]: 0.0015
- Henry solubility constant Hcp ([3]; reference: Sanemasa et al. (1981)): 0.0016
- Henry solubility constant Hcp ([3]; reference: Schoene and Steinhanses (1985)): 0.0012
- Henry solubility constant Hcp ([3]; reference: Sieg et al. (2009)): 0.0015
- Henry solubility constant Hcp ([3]; reference: Tsibul’skii et al. (1979)): 0.0015
- Henry solubility constant Hcp [3, 10]: 0.0014
- Henry solubility constant Hcp ([3]; reference: Vane and Giroux (2000)): 0.0019
- Henry solubility constant Hcp ([3]; reference: Vitenberg et al. (1975)): 0.0019
- Henry solubility constant Hcp [3, 13]: 0.0017
- Henry solubility constant Hcp [3, 11]: 0.0017
- Henry solubility constant Hcp at 295 K [5, 14]: 0.002
- Henry solubility constant Hcp at 293 K ([4]; reference: Yu (1992)): 0.0037
- Henry solubility constant Hcp at 293 K [4, 12]: 0.0017

SMILES: CC[N+](=O)[O-] [nitroethane]
- Henry solubility constant Hcp at 303 K ([6]; reference: Friant and Suffet (1979)): 0.14
- Henry solubility constant Hcp ([3]; reference: Beneš and Dohnal (1999)): 0.22

SMILES: CCCCCOC(C)=O [pentyl ethanoate]
- Henry solubility constant Hcp at 303 K [6, 15]: 0.13
- Henry solubility constant Hcp [3, 20]: 0.028

SMILES: CCCOC(C)=O [propyl ethanoate]
- Henry solubility constant Hcp at 303 K [6, 19]: 0.031
- Henry solubility constant Hcp ([3]; reference: Fenclová et al. (2014)): 0.045
- Henry solubility constant Hcp [3, 20]: 0.045

SMILES: CCCN(CCC)c1c([N+](=O)[O-])cc(C(F)(F)F)cc1[N+](=O)[O-] [trifluralin]
- Henry solubility constant Hcp at 296 K [2, 21]: 0.19
- Henry solubility constant Hcp [3, 21]: 0.17
- Henry solubility constant Hcp at 293 K ([4]; reference: Rice et al. (1997b)): 0.095
